Assay results reported in US8664257B2, “Oxygen-substituted 3-heteroaroylamino-propionic acid derivatives and their use as pharmaceuticals” (Sanofi, priority 2010, dated 2014).

Biological target: T1, Recombinant human cathepsin A (Homo sapiens, UniProt P10619)
T1 construct: Recombinant human cathepsin A (residues 29-480, with a C-terminal 10-His tag); 10-His (C); purchased R&D Systems 1049-SE
T1 sequence (P10619 29-312 limits assumed): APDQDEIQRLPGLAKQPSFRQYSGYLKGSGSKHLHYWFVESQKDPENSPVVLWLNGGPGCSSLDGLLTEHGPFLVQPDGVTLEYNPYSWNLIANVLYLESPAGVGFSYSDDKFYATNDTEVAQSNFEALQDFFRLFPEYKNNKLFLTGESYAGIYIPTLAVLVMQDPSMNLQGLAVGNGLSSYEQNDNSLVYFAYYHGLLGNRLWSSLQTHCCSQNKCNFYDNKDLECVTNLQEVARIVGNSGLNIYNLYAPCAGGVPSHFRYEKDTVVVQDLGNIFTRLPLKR
T1 sequence (P10619 327-480 limits assumed): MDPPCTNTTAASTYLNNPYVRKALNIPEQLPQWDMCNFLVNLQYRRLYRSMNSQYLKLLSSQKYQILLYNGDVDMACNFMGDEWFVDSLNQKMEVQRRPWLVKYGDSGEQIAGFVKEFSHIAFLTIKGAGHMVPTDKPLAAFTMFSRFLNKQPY
Assay: Cathepsin A inhibitory activity
Format: biochemical
Conditions: read-out: Activity (2): Cathepsin A inhibitory activity (IC50 class)
Protocol: a) Cathepsin A Inhibitory Activity
Recombinant human cathepsin A (residues 29-480, with a C-terminal 10-His tag; R&D Systems, #1049-SE) was proteolytically activated with recombinant human cathepsin L (R&D Systems, #952-CY). Briefly, cathepsin A was incubated at 10 μg/ml with cathepsin L at 1 μg/ml in activation buffer (25 mM 2-(morpholin-4-yl)-ethanesulfonic acid (MES), pH 6.0, containing 5 mM dithiothreitol (DTT)) for 15 min at 37° C. Cathepsin L activity was then stopped by the addition of the cysteine protease inhibitor E-64 (N-(trans-epoxysuccinyl)-L-leucine-4-guanidinobutylamide; Sigma-Aldrich, #E3132; dissolved in activation buffer/DMSO) to a final concentration of 10 μM.
The activated cathepsin A was diluted in assay buffer (25 mM MES, pH 5.5, containing 5 mM DTT) and mixed with the test compound (dissolved in assay buffer containing (v/v) 3% DMSO) or, in the control experiments, with the vehicle in a multiple assay plate. After incubation for 15 min at room temperature, as substrate then bradykinin carrying an N-terminal®Bodipy FL (4,4-difluoro-5,7-dimethyl-4-bora-3a,4a-diaza-s-indacene-3-propionyl) label (JPT Peptide Technologies GmbH; dissolved in assay buffer) was added to the mixture. The final concentration of cathepsin A was 833 ng/ml and the final concentration of labeled bradykinin 2 μM. After incubation for 15 min at room temperature the reaction was stopped by the addition of stop buffer (130 mM 2-(4-(2-hydroxy-ethyl)-piperazin-1-yl)-ethanesulfonic acid, pH 7.4, containing (v/v) 0.013% Triton X-100, 0.13% Coating Reagent 3 (Caliper Life Sciences), 6.5% DMSO and 20 μM ebelactone B (Sigma, # E0886)).
Uncleaved substrate and product were then separated by a microfluidic capillary electrophoresis on a LabChip® 3000 Drug Discovery System (12-Sipper-Chip; Caliper Life Sciences) and quantified by determination of the respective peak areas. Substrate turnover was calculated by dividing product peak area by the sum of substrate and product peak areas, and the enzyme activity and the inhibitory effect of the test compound thus quantified. From the percentage of inhibition of cathepsin A activity observed with the test compound at several concentrations, the inhibitory concentration IC50, i.e. the concentration which effects 50% inhibition of enzyme activity was, calculated.

SMILES	IC50 [nM]
Cc1ccccc1[C@H](CC(=O)O)NC(=O)c1cc(OC[C@H](O)C(C)(C)C)n(-c2ccccc2F)n1 (single isomer, unassigned) [Example 745]	< 100
Cc1ccccc1[C@H](CC(=O)O)NC(=O)c1cc(OC[C@](C)(O)C(C)(C)C)n(-c2ccccc2F)n1 (single isomer, unassigned) [Example 747]	< 100

The remaining lines, values ahead:

IC50 [nM]	SMILES
< 100	Cc1ccccc1[C@H](CC(=O)O)NC(=O)c1cc(OC[C@@](C)(O)C(C)(C)C)n(-c2ccccc2F)n1 (single isomer, unassigned) [Example 748]
< 100	CC(C)(C)[C@@](C)(O)COc1cc(C(=O)N[C@@H](CC(=O)O)c2ccccc2Cl)nn1-c1ccccc1F (single isomer, unassigned) [Example 758]
< 100	CC(C)(C)[C@](C)(O)COc1cc(C(=O)N[C@@H](CC(=O)O)c2ccccc2Cl)nn1-c1ccccc1F (single isomer, unassigned) [Example 759]
< 100	Cc1ccccc1[C@H](CC(=O)O)NC(=O)c1cc(OC[C@H](O)C2CC2)n(-c2ccccc2F)n1 (single isomer, unassigned) [Example 760]
< 100	Cc1ccccc1[C@H](CC(=O)O)NC(=O)c1cc(OC[C@@H](O)C2CC2)n(-c2ccccc2F)n1 (single isomer, unassigned) [Example 761]
< 100	Cc1ccccc1[C@H](CC(=O)O)NC(=O)c1cc(OC[C@](C)(O)C2CC2)n(-c2ccccc2F)n1 (single isomer, unassigned) [Example 763]
< 100	Cc1ccccc1[C@H](CC(=O)O)NC(=O)c1cc(OC[C@@](C)(O)C2CC2)n(-c2ccccc2F)n1 (single isomer, unassigned) [Example 764]

Same assay, conditions: read-out: Activity (2): Cathepsin A inhibitory activity, IC50 class

IC50 [nM]	SMILES
1000 to 30000	Cc1ccccc1[C@H](CC(=O)O)NC(=O)c1cc(OC[C@@](C)(O)C(C)C)n(-c2ccccc2F)n1 (single isomer, unassigned) [Example 833]
1000 to 30000	Cc1ccc(C)c(-n2nc(C(=O)NC(CC(=O)O)c3ccc(F)cc3)cc2O)c1 (centres unmarked) [Example 1]
1000 to 30000	CCCC(CC(=O)O)NC(=O)c1cc(O)n(-c2ccccc2)n1 (centres unmarked) [Example 2]
100 to 1000	COc1ccc(C(CC(=O)O)NC(=O)c2cc(O)n(-c3ccccc3)n2)cc1 (centres unmarked) [Example 3, 3-[(5-Hydroxy-1-phenyl-1H-pyrazole-3-carbonyl)-amino]-3-(4-methoxy-phenyl)-propionic acid]
1000 to 30000	CC(C)(CC(=O)O)NC(=O)c1cc(O)n(-c2ccccc2)n1 [Example 4]
1000 to 30000	O=C(O)CC1(NC(=O)c2cc(O)n(-c3ccccc3)n2)CCCC1 [Example 5]
1000 to 30000	CC(C)(C)Oc1cccc(C(CC(=O)O)NC(=O)c2cc(O)n(-c3ccccc3)n2)c1 (centres unmarked) [Example 6]
1000 to 30000	Cc1ccc(C)c(-n2nc(C(=O)NC(C)(C)CC(=O)O)cc2O)c1 [Example 8]
100 to 1000	COc1cccc(C(CC(=O)O)NC(=O)c2cc(O)n(-c3ccccc3)n2)c1 (centres unmarked) [Example 9]
100 to 1000	O=C(O)CC(NC(=O)c1cc(O)n(-c2ccccc2)n1)c1cccc(Cl)c1 (centres unmarked) [Example 10]
1000 to 30000	COc1ccc(C(CC(=O)O)NC(=O)c2cc(O)n(-c3ccccc3)n2)cc1OC (centres unmarked) [Example 11]
100 to 1000	O=C(O)CC(NC(=O)c1cc(O)n(-c2ccccc2)n1)c1ccc(OC(F)(F)F)cc1 (centres unmarked) [Example 12]
1000 to 30000	CC(C)C(CC(=O)O)NC(=O)c1cc(O)n(-c2ccccc2)n1 (centres unmarked) [Example 13]
100 to 1000	CCCCC(CC(=O)O)NC(=O)c1cc(O)n(-c2ccccc2)n1 (centres unmarked) [Example 14]
1000 to 30000	O=C(O)CC(CCc1ccccc1)NC(=O)c1cc(O)n(-c2ccccc2)n1 (centres unmarked) [Example 15]

SMILES	IC50 [nM]
Cc1ccc(C)c(-n2nc(C(=O)NC(CC(=O)O)c3cccc(OC(C)(C)C)c3)cc2O)c1 (centres unmarked) [Example 7, 3-(3-tert-Butoxy-phenyl)-3-{[1-(2,5-dimethyl-phenyl)-5-hydroxy-1H-pyrazole-3-carbonyl]-amino}-propionic acid]	1000 to 30000

Same assay, conditions: recombinant human cathepsin A 833 ng/ml, Bodipy FL-labeled bradykinin 2 μM, pH 5.5; read-out: CATH-A IC50

SMILES	IC50 [nM]
Cc1ccccc1[C@H](CC(=O)O)NC(=O)c1cc(OC[C@H](O)C(C)(C)C)n(-c2ccccc2F)n1 (single isomer, unassigned) [Example 745]	4.7
Cc1ccccc1[C@H](CC(=O)O)NC(=O)c1cc(OC[C@](C)(O)C(C)(C)C)n(-c2ccccc2F)n1 (single isomer, unassigned) [Example 747]	14.7

Next, values leading:

IC50 [nM]	SMILES
2.56	Cc1ccccc1[C@H](CC(=O)O)NC(=O)c1cc(OC[C@@](C)(O)C(C)(C)C)n(-c2ccccc2F)n1 (single isomer, unassigned) [Example 748]
17.4	CC(C)(C)[C@@](C)(O)COc1cc(C(=O)N[C@@H](CC(=O)O)c2ccccc2Cl)nn1-c1ccccc1F (single isomer, unassigned) [Example 758]
